Assays:
[1] = test system: canine left ventricular arterially perfused wedge preparations; test: Electrophysiology (APD90, sodium channel-dependent parameters) in arterially perfused ventricular wedge preparations; conditions: for DTE (% Δ) Ventricles, diastolic threshold of excitation: ranolazine 10 μM, lidocaine 21 μM, propafenone 1.5 μM; for effect on APD90 in ventricular myocardium, in words: ranolazine 1 to 10 μmol/L, lidocaine 2.1 to 21 μmol/L
Method: (§4) Experiments were performed using isolated arterially perfused canine right atrial preparations and left ventricular arterially perfused wedge preparations (Antzelevitch et al. Circulation. 2004;110:904-910, Burashnikov et al. Am J Physiol. 2004;286:H2393-H2400., and Burashnikov et al. Circulation. 2003;107:2355-2360.) Therapeutic plasma concentrations of ranolazine (1-10 μM), lidocaine (2.1-21 μM), and propafenone (0.3-3.0 μM) were examined.
(§5) Sodium channel-mediated parameters, such as the maximum rate of rise of the AP upstroke (Vmax), conduction velocity (CV), diastolic threshold of excitation (DTE), and post-repolarization refractoriness (PRR) were evaluated. PRR was defined as the difference between action potential duration (APD) and atrial effective refractory period (ERP).

[2] = test system: canine isolated coronary artery-perfused right atrial preparations; test: Electrophysiology (APD90, sodium channel-dependent parameters) in isolated coronary artery-perfused atrial preparations; conditions: for effect on action potential duration (APD90) in atria, in words: ranolazine 1 to 10 μmol/L, lidocaine 2.1 to 21 μmol/L
Method: as §4, §5

[3] = test system: acetylcholine-mediated AF in coronary artery-perfused right atrial preparations; test: Acetylcholine-mediated persistent AF in coronary artery-perfused right atrial preparations; conditions: for Termination of AF (share of preparations): acetylcholine (0.5 μM) persistent AF, ranolazine 10.0 μM, lidocaine 21.0 μM, propafenone 1.5-3.0 μM
[4] = test system: canine superfused PV sleeve preparations; test: Action potential recording in superfused pulmonary vein (PV) sleeve preparations; assay type: cell-based
Method: Action potentials (AP) were recorded from canine superfused PV sleeves using microelectrode techniques. Acetylcholine (ACh, 1 μM), isoproterenol (Iso, 1 μM), or their combination was used to induce EADs, DADs, and triggered activity.

[5] = test system: arterially-perfused right atrial preparations; test: Transmembrane action potentials in arterially-perfused right atrial preparations (Example 4); conditions: for action potential duration of pectinate muscle (PM-APD75): untreated 154±11
Excerpt: Floating microelectrode techniques were used to record transmembrane action potentials (BCL=500 ms).

[6] = target: T1, peak sodium channel current (INa) in canine ventricular myocytes (Canis lupus familiaris, UniProt Q865W3); test: Whole-cell patch clamp, steady-state inactivation of sodium current in ventricular myocytes; assay type: cell-based; conditions: 15 μM ranolazine, before drug −72.53±0.16
T1 construct: Whole-cell peak sodium currents were recorded at 37° C. in low-sodium external solution from myocytes isolated; endogenous in cells; host or cells: myocytes isolated from right atrium and left ventricle of adult mongrel dogs
Method: (§1) FIG. 1 presents the voltage dependence of activation and steady-state inactivation of sodium current in canine atrial versus ventricular myocytes. (A) Current-voltage relationship for sodium current in ventricular and atrial myocytes. […] (B) Summarized steady-state inactivation curves. […] Insets show representative atrial and ventricular traces after 1-s conditioning pulses to the indicated potentials. (C) Steady-state inactivation curves before and after addition of 15 μM ranolazine.
(§2) The electrophysiological effects of therapeutic concentrations of ranolazine (1 to 10μmol/L) and lidocaine (2.1 to 21 μmol/L) were evaluated in canine isolated coronary-perfused atrial and ventricular preparations.
(§3) Whole-cell peak sodium currents were recorded at 37° C. in low-sodium external solution from myocytes isolated from the right atrium and left ventricle (LV) of adult mongrel dogs.

[7] = test system: self-terminating AF in atria exposed to ischemia and β-adrenergic agonists; test: AF induced by ischemia and β-adrenergic agonists in atria; assay type: cell-based, canine; conditions: ranolazine 5-10 μM
Excerpt: Ischemia/reperfusion coupled with iso-proterenol mimics the conditions that prevail during acute myocardial infarction or the substrate encountered postsurgically.

late INa = target: T2, late INa (Canis lupus familiaris, UniProt Q865W3); conditions: canine ventricular myocytes; read-out: IC50 for inhibition of late INa; cited from earlier work
T2 construct: host or cells: canine ventricular myocytes

peak INa = target: T3, peak INa (Canis lupus familiaris, UniProt Q865W3); conditions: canine ventricular myocytes; read-out: IC50 for inhibition of peak INa; cited from earlier work
T3 construct: […]; host or cells: canine ventricular myocytes

[8] = test system: ventricular Purkinje fibers and M cell preparations; conditions: paced at a CL of 500 ms; read-out: IC50 for suppression of Vmax; cited from earlier work
Purkinje fibers = test: Action potential duration in Purkinje fibers; assay type: cell-based, canine; conditions: ranolazine 1 to 10 μmol/L
Method: as §2

[9] = target: T4, peak sodium channel current (INa) in canine atrial myocytes (Canis lupus familiaris, UniProt Q865W3); test: Whole-cell patch clamp, steady-state inactivation of sodium current in atrial myocytes; assay type: cell-based; conditions: 15 μM ranolazine, n=5, before drug −86.35±0.19
T4 construct: Whole-cell peak sodium currents were recorded at 37° C. in low-sodium external solution from myocytes isolated; endogenous in cells; host or cells: myocytes isolated from right atrium and left ventricle of adult mongrel dogs
Method: as §1, §2, §3

[10] = target: T5, rapidly activating delayed rectifier potassium current (IKr) (Canis lupus familiaris, UniProt Q9TSZ3); conditions: read-out: IC50 for block of IKr; cited from earlier work
T5 sequence (Q9TSZ3 1-1158): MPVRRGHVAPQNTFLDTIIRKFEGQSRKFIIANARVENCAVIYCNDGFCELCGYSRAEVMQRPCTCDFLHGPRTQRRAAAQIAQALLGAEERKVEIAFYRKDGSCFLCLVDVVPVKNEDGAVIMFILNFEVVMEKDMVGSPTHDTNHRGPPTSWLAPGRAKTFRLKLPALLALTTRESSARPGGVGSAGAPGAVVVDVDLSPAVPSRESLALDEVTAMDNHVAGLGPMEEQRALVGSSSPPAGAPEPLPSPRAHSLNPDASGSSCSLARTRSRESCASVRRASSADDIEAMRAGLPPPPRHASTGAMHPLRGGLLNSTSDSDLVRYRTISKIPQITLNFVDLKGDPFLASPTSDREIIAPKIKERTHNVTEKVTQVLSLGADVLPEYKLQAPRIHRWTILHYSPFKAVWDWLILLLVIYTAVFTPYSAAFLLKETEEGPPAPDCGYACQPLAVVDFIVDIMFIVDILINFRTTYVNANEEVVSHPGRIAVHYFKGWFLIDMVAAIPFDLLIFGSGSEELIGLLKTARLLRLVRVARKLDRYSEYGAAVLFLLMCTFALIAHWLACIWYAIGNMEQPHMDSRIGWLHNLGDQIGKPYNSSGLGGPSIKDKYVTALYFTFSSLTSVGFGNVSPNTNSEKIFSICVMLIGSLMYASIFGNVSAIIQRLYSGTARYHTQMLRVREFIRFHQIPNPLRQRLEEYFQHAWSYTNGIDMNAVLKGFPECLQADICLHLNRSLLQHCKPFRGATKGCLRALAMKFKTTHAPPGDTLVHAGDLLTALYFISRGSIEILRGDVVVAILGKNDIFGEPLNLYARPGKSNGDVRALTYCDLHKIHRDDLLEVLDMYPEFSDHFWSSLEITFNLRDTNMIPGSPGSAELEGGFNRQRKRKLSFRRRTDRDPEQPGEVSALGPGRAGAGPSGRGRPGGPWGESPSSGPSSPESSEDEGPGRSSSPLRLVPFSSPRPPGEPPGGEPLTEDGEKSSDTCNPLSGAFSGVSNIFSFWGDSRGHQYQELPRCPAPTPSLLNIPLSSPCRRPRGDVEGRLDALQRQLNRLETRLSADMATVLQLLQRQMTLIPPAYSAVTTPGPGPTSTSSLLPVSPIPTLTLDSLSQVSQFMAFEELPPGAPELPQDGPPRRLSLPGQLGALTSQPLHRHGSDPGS

[11] = drug alone: chronic Amio (6 weeks, 40 mg/kg daily) PV sleeves, or 10 μM ranolazine in untreated controls, untreated 124 ms
[12] = drug alone: chronic AMIO (40 mg/kg daily for 6 weeks) or acute ranolazine 5 μM in untreated atria, BCL=500 ms
[13] = drug alone: chronic AMIO (40 mg/kg daily for 6 weeks) or acute ranolazine 5 μM in untreated atria, BCL=500 ms, untreated 158±18
[14] = acute ranolazine 5 μM in chronic AMIO treated atria, BCL=500 ms

| SMILES | DTE (% Δ) Ventricles, diastolic threshold of excitation ([1]; pacing cycle length 0.3 s) | DTE (% Δ) Ventricles, diastolic threshold of excitation ([1]; pacing cycle length 0.5 s) | effect on APD90 in ventricular myocardium, in words [1] | atrial selectivity of depression of sodium channel-dependent parameters (atria versus ventricles), in words [2] | effect on action potential duration (APD90) in atria, in words [2] | Termination of AF (share of preparations) [3] | change (prolongation) of APD90 in ventricles ([1]; CL=500 ms) | average CL at which 2:1 activation failure developed [4, 11] | prolongation of APD90 in atria ([2]; CL=500 ms) | action potential duration of pectinate muscle (PM-APD75) [5, 12] | effective refractory period (ERP) [5, 13] | further results |
| --- | --- | --- | --- | --- | --- | --- | --- | --- | --- | --- | --- | --- |
| CCN(CC)CC(=O)Nc1c(C)cccc1C [Lidocaine, lidocaine] | 40% | +8% | abbreviated | much less atrial-selective than ranolazine or chronic amiodarone | abbreviated | 33% (2/6) |  |  |  |  |  | abbreviation of APD90 in ventricles ([1]; CL=500 ms): 9%; abbreviation of APD90 in atria ([2]; CL=500 ms): 6% |
| CCCCc1oc2ccccc2c1C(=O)c1cc(I)c(OCCN(CC)CC)c(I)c1 [Chronic Amiodarone, amiodarone] |  |  |  |  |  |  | 12% | 420 ms | 22% | 183 ± 7 ms | 222 ± 12 ms | maximal rate of rise of AP upstroke (Vmax) ([4]; PV sleeves from dogs treated with chronic Amio (6 weeks, 40 mg/kg daily), CL 1000 ms, untreated controls 314±79): 115±89 V/s; atria in which persistent acetylcholine-mediated AF could be induced ([3]; atria isolated from dogs chronically treated, versus 10 of 10 untreated atria): 1 of 6 |
| COc1ccccc1OCC(O)CN1CCN(CC(=O)Nc2c(C)cccc2C)CC1 (racemic) [Ranolazine, (±)-N-(2,6-dimethylphenyl)-4-[2-hydroxy-3-(2-methoxyphenoxy)-propyl]-1-piperazineacetamide] | 8% | +3% | no effect | striking atrial selectivity | prolongation | 66% (4/6) | +2% | 190 ms | 11% | 159 ± 9 ms | 190 ± 24 ms | half-inactivation voltage (V0.5) of steady-state inactivation after ranolazine [6]: −74.81±0.14 mV; atria in which induction of AF was prevented [7]: 4 of 5; IC50 (late INa): 6 µM; IC50 (peak INa): 294 µM; IC50 [8]: > 100 µM; average CL at which 2:1 activation failure developed ([4]; 5 μM RAN superfused on chronic Amio PV sleeves, n=5): 1350 ms; average CL at which 2:1 activation failure developed ([4]; 10 μM RAN superfused on chronic Amio PV sleeves, n=5): 1660 ms; late phase 3 EAD- and DAD-induced triggered activity ([4]; RAN 5-10 μM added to chronic Amio PV sleeves, Iso and/or ACh, rapid pacing): completely eliminated; effect on APD90 in Purkinje fibers, in words (Purkinje fibers): abbreviation; action potential duration APD75 [5, 14]: 189 ± 9 ms; effective refractory period (ERP) [5, 14]: 258 ± 50 ms; shortest pacing CL permitting 1:1 response ([5]; in presence of acetylcholine (ACh), control 71±12): 94 ± 31 ms; shortest pacing CL permitting a 1:1 response ([5]; without acetylcholine, control 129±8): 234 ± 49 ms; half-inactivation voltage (V0.5) of steady-state inactivation after ranolazine [9]: −91.38±0.35 mV; IC50 [10]: 12 µM |
| CCCNCC(O)COc1ccccc1C(=O)CCc1ccccc1 (stereo not shown) [Propafenone, propafenone] | 125% | +84% |  |  |  | 100% (7/7) | +3% |  | 13% |  |  |  |
